Laboratory results published in PubChem BioAssay AID276 (DTP/NCI, 2004).
Values joined by “and” are separate entries in the source; they are usually repeats but may differ in a detail not shown here. Equal values may be shown once. Inconclusive results and toxic doses are left out.

System: B6C3F1 mice, Lewis lung carcinoma iv, survival T/C
Experiment: NCI In Vivo Anticancer Drug Screen. Data for tumor model Lewis Lung Carcinoma (intravenous) in B6C3F1 mice
Details: endpoint: median survival time, schedule: Q01DX009 (ip), higher = longer survival
Description: The antitumor activity of compounds was measured in mice bearing transplantable tumors. Survival or tumor size were measured and the results are expressed as the measurement made in the treated group (T) divided by the measurement made in the vehicle treated control group (C). The tumor model used in this assay is Lewis Lung Carcinoma (intravenous) in B6C3F1 mice

[1] = dose: 50.0 mg/kg/injection, vehicle: Klucel (hydroxypropylcellulose) (HPC)
[2] = dose: 100.0 mg/kg/injection, vehicle: Klucel (hydroxypropylcellulose) (HPC)
[3] = dose: 200.0 mg/kg/injection, vehicle: Klucel (hydroxypropylcellulose) (HPC)
[4] = dose: 400.0 mg/kg/injection, vehicle: Klucel (hydroxypropylcellulose) (HPC)
[5] = dose: 25.0 mg/kg/injection, vehicle: saline
[6] = dose: 50.0 mg/kg/injection, vehicle: saline
[7] = dose: 100.0 mg/kg/injection, vehicle: saline
[8] = dose: 200.0 mg/kg/injection, vehicle: saline

SMILES: NC(CNC(=O)CBr)C(=O)O (stereo not drawn)
- T/C (dose: 6.25 mg/kg/injection, vehicle: water): 102 % of control
- T/C (dose: 12.5 mg/kg/injection, vehicle: water): 95 % of control
- T/C (dose: 25.0 mg/kg/injection, vehicle: water): 109 % of control
- T/C (dose: 50.0 mg/kg/injection, vehicle: water): 109 % of control

SMILES: C[C@]12C=CC(=O)C=C1CC[C@@H]1[C@@H]2[C@@H](O)C[C@@]2(C)[C@H]1CC[C@]2(O)C(=O)CO
- T/C (dose: 25.0 mg/kg/injection, vehicle: Klucel (hydroxypropylcellulose) (HPC)): 107 % of control
- T/C [1]: 118 % of control
- T/C [2]: 107 % of control
- T/C [3]: 118 % of control
- T/C [4]: 107 % of control

SMILES: CCCCCC#CC1OC12CCCCC2 (stereo not drawn)
- T/C (dose: 50.0 mg/kg/injection, vehicle: saline with Tween-80): 102 % of control
- T/C (dose: 100.0 mg/kg/injection, vehicle: saline with Tween-80): 100 % of control
- T/C (dose: 200.0 mg/kg/injection, vehicle: saline with Tween-80): 88 % of control
- T/C (dose: 400.0 mg/kg/injection, vehicle: saline with Tween-80): 91 % of control

SMILES: Nc1cc2c3c(cccc3c1)C(=O)N(CCN1CCCC1)C2=O
- T/C (dose: 3.12 mg/kg/injection, vehicle: saline with Tween-80): 105 % of control
- T/C (dose: 6.25 mg/kg/injection, vehicle: saline with Tween-80): 105 % of control
- T/C (dose: 12.5 mg/kg/injection, vehicle: saline with Tween-80): 105 % of control
- T/C (dose: 25.0 mg/kg/injection, vehicle: saline with Tween-80): 109 % of control

SMILES: O=NN(CCCl)C(=O)Oc1ccc(OC(=O)N(CCCl)N=O)cc1
- T/C (dose: 0.5 mg/kg/injection, vehicle: Klucel (hydroxypropylcellulose) (HPC)): 95 % of control
- T/C (dose: 1.0 mg/kg/injection, vehicle: Klucel (hydroxypropylcellulose) (HPC)): 96 % of control
- T/C (dose: 2.0 mg/kg/injection, vehicle: Klucel (hydroxypropylcellulose) (HPC)): 105 % of control
- T/C (dose: 3.12 mg/kg/injection, vehicle: Klucel (hydroxypropylcellulose) (HPC)): 97 % of control
- T/C (dose: 4.0 mg/kg/injection, vehicle: Klucel (hydroxypropylcellulose) (HPC)): 111 % of control

SMILES: CCCCNc1ccc2nnc(C)n2n1
- T/C (dose: 50.0 mg/kg/injection, vehicle: DMSO): 100 % of control
- T/C (dose: 100.0 mg/kg/injection, vehicle: DMSO): 100 % of control
- T/C (dose: 200.0 mg/kg/injection, vehicle: DMSO): 102 % of control

SMILES: O=c1n(CC2CO2)c(=O)n(CC2CO2)n1CC1CO1 (stereo not drawn)
- T/C (dose: 6.25 mg/kg/injection, vehicle: saline): 100 % of control
- T/C (dose: 12.5 mg/kg/injection, vehicle: saline): 108 % of control
- T/C [5]: 108 % of control

SMILES: CC(=O)Oc1c[nH]c(=O)[nH]c1=O
- T/C (dose: 12.5 mg/kg/injection, vehicle: distilled water + Tween-80): 102 % of control
- T/C (dose: 25.0 mg/kg/injection, vehicle: distilled water + Tween-80): 95 % of control
- T/C (dose: 50.0 mg/kg/injection, vehicle: distilled water + Tween-80): 92 % of control
- T/C (dose: 100.0 mg/kg/injection, vehicle: distilled water + Tween-80): 100 % of control
- T/C (dose: 200.0 mg/kg/injection, vehicle: distilled water + Tween-80): 95 % of control
- T/C (dose: 400.0 mg/kg/injection, vehicle: distilled water + Tween-80): 94 % of control

SMILES: c1csc(C[N+]23CN4CN(CN(C4)C2)C3)c1
- T/C (dose: 12.0 mg/kg/injection, vehicle: saline): 100 % of control
- T/C [5]: 101 % of control
- T/C [6]: 96 % of control
- T/C [7]: 96 % of control
- T/C [8]: 110 % of control

SMILES: CC1C=NNC1=O (stereo not drawn)
- T/C [1]: 103 % of control
- T/C [2]: 103 % of control
- T/C [3]: 113 % of control
- T/C [4]: 121 % of control
- T/C (dose: 800.0 mg/kg/injection, vehicle: Klucel (hydroxypropylcellulose) (HPC)): 118 % of control

SMILES: CC(=O)NCCCCCCNC(C)=O
- T/C [5]: 92 % of control and 96 % of control
- T/C [6]: 90 % of control and 92 % of control
- T/C [7]: 88 % of control and 106 % of control
- T/C [8]: 100 % of control and 102 % of control
- T/C (dose: 400.0 mg/kg/injection, vehicle: saline): 96 % of control and 103 % of control
- T/C (dose: 800.0 mg/kg/injection, vehicle: saline): 102 % of control and 105 % of control

SMILES: CCCCn1cnc2c(=S)nc[nH]c21
- T/C [5]: 112 % of control
- T/C [6]: 110 % of control

SMILES: CN(C)/N=N/c1nc[nH]c1C(N)=O
- T/C (dose: 12.5 mg/kg/injection, vehicle: Klucel (hydroxypropylcellulose) (HPC)): 229 % of control
